Patent publication US20260042799A1, “APPLICATION OF PEPTIDE IN PREPARING DRUGS FOR TREATING AND/OR PREVENTING COGNITIVE IMPAIRMENT” (HUAZHONG UNIVERSITY OF SCIENCE AND TECHNOLOGY, priority 2024, published 2026)
Entries after “also recorded” stand apart in the source; their conditions may differ. Where no end group is shown, it is not given here.

Legend:
P301S mice [1] = assay: Morris water maze test; assay type: in vivo; conditions: detection stage on the 8th day, 15 mg/kg subcutaneous, 14 days
Description: (§1) FIG. 3A to FIG. 3J show the statistical chart of TAT-P6 peptide improving mouse learning memory ability results. FIGS. 3A-B are behavioral experiments for four groups of mice (C57 mice injected with TAT-S6 group, C57 mice injected with TAT-P6 group, P301S mice injected with TAT-S6 group, P301S mice injected with TAT-P6 group) using open field test system.
(§2) Male P301S mice 6-8 months old (purchased from Jackson Laboratory), C57/BL6 mice 6-8 months old (purchased from Beijing Vital River Laboratory Animal Technology Co., Ltd.), SPF grade, weight 20-25 grams, raised in conventional environment.
• 1) Mouse spatial memory detection: novel object recognition and water maze; • a) Novel object recognition: Before conducting the novel object recognition test, it is necessary to eliminate unfamiliarity with the mice by petting them daily to prevent stimulation during operation. The first stage is adaptation period. Mice move freely in the experimental device (without objects) for 10 minutes. The second stage is familiarization period. […] Within 5 min (many experiments have proven that after 2 min of familiarization period, animals already show good preference for novel objects, and of course, 3 min of familiarization makes the preference more obvious), the number of times, time, and distance the animal explores each object are measured. […] During training, the mouse is gently placed in the water from a ½ radian position of any quadrant with its head facing the pool wall, and its latency period (the time taken by the mouse to find the platform from entering the water) and path are detected as indicators to measure the mouse's learning memory and test performance. […] If the platform is not found within 90 s, the system automatically stops recording, and the latency period is recorded as 90 s. […] The initial training period is 6 days, with daily recording of the time needed for mice to find the platform, recorded as the latency period required for mice to find the platform. […]

P301S mice [2] = assay: Open field test, P301S mice; assay type: in vivo; conditions: C57 and P301S mice, 15 mg/kg subcutaneous, 14 days
Description: as §1, §2
Open field experiment: The open field experiment is an experiment in which animals are placed in a closed open metal box area with a length of 80 cm, width of 80 cm, and height of 50 cm to observe mouse activity. This area is divided into squares, and typically the number of squares crossed by mice within a given time is counted to examine the anxiety emotional state and movement ability of the experimental mice. […] The experimental area is set up on the computer, the experimental area is divided equally into a “ ? ” shape, with the innermost circle as the central region and the outermost as the peripheral region, then the camera is turned on, the light source is adjusted, and information such as the position, movement route, and distance of the experimental mice is recorded using the computer. […]

[3] = target: T1, binding between HA-GluA2 and EGFP-Syn2b (Homo sapiens, UniProt P42262); assay: Co-immunoprecipitation/immunoblotting of Syn2b-GluA2 binding in co-transfected HEK293T cells; assay type: cell-based; conditions: 10 μM peptide in culture medium for 90 minutes, 48 hours after transfection
T1 construct: HA; expressed in transfected cells; host or cells: HEK293T
T1 sequence (P42262 25-883): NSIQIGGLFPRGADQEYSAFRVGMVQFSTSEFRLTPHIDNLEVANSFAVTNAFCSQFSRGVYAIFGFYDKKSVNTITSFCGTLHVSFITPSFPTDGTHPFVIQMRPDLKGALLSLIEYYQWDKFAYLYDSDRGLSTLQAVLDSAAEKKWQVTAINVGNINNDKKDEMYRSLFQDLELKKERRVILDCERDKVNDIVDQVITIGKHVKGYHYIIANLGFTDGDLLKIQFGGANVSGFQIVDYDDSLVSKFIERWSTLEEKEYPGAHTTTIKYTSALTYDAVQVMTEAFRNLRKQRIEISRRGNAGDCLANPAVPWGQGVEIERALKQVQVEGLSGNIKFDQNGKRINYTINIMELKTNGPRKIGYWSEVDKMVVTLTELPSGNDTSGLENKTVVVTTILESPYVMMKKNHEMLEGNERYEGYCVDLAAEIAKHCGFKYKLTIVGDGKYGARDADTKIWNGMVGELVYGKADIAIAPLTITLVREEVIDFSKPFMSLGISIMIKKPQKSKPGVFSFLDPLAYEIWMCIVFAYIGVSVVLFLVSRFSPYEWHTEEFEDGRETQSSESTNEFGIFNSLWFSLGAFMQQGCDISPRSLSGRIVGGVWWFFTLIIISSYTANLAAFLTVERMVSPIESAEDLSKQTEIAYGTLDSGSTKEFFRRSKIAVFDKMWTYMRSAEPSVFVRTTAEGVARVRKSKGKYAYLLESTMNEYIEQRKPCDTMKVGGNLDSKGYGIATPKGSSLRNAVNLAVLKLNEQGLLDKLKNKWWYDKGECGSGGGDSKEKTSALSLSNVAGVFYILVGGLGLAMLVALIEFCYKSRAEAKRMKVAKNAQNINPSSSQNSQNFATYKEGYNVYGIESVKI
Method: First, HA-GluA2 and EGFP-Syn2b overexpression plasmids were transfected into HEK293T cells. After 48 hours of transfection, 10 μM concentration of TAT-P6 and TAT-S6 peptides were given in the cell culture medium for 90 minutes, […] and then cells were collected. The overexpressed Syn2b protein is a fusion protein of Syn2b and GFP, using anti-GFP antibody to precipitate cellular proteins, and then using anti-GluA2 antibody to detect the precipitated proteins, the black imprint on the NC membrane indicates the interaction between GluA2 and Syn2b.
Open field experiment: The open field experiment is an experiment in which animals are placed in a closed open metal box area with a length of 80 cm, width of 80 cm, and height of 50 cm to observe mouse activity. This area is divided into squares, and typically the number of squares crossed by mice within a given time is counted to examine the anxiety emotional state and movement ability of the experimental mice. […] Recording is stopped after observing for a certain time, generally about 5 minutes. • 3) Quantify mouse hippocampal related protein content: immunoblotting; • 4) Disrupting the binding of Syn2b and GluA2 in HEK 293T cells: co-immunoprecipitation, immunoblotting. […]

P301S mice [4] = assay: Novel object recognition test; assay type: in vivo; conditions: 15 mg/kg subcutaneous, 14 days
Description: as §1, §2
• 1) Mouse spatial memory detection: novel object recognition and water maze; • a) Novel object recognition: Before conducting the novel object recognition test, it is necessary to eliminate unfamiliarity with the mice by petting them daily to prevent stimulation during operation. The first stage is adaptation period. […] Within 5 min (many experiments have proven that after 2 min of familiarization period, animals already show good preference for novel objects, and of course, 3 min of familiarization makes the preference more obvious), the number of times, time, and distance the animal explores each object are measured. […] If the platform is not found within 90 s, the system automatically stops recording, and the latency period is recorded as 90 s. […]

[5] = Solubility of the synthesized peptide in water; assay type: physicochemical; conditions: white powder
Description: The sequence of TAT-P6 is shown in SEQ ID NO:3, artificially synthesized by Jiangsu Qiangyao Biotechnology Co., Ltd., and the mass spectrometry analysis is shown in FIG. 1. […] The sequence of TAT-S6 is shown in SEQ ID NO:4, also synthesized by the same company.

YGRKKRRQRRRCNDILY [TAT-S6]
latency to reach the platform in the water maze (P301S mice [1]): prolonged latency to reach the platform
number of times crossing the platform position in the water maze (P301S mice [1]): crossed the platform significantly fewer times
time spent in the target quadrant in the water maze (P301S mice [1]): spent significantly less time in the target quadrant
movement ability of mice (P301S mice [2]): did not change the movement ability
GluA2 detected by anti-GluA2 antibody in anti-GFP (Syn2b) precipitate; interaction between Syn2b and GluA2 [3]: could be clearly detected
time spent at the new object (P301S mice [4]): spent less time at the new object

YGRKKRRQRRRYILDCN [TAT-P6, YGRKKRRQRRRYILDCN]
solubility in water [5]: completely soluble; also recorded: completely dissolved in water
